From patent US8608961B2, “Method for affinity chromatography of antithrombin III” (Aventis Pharma S.A., priority 2005, dated 2013) come the findings set out here.

The test system of this assay is factor Xa. The assay can be described thus: anti-Xa activity of fractions separated by ATIII affinity chromatography. The format is biochemical. Conditions: fractions of LMWH (hexasaccharides) separated on ATIII affinity column 1 (protection: enoxaparin) or column 2 (protection: heparin); hexasaccharide for comparison. An excerpt: The composition of the elution fractions may then be analyzed according to methods well known to those skilled in the art. Thus, if the fractions analyzed comprise oligosaccharides, those skilled in the art may use the analytical methods described in the prior art: for example and in a nonlimiting manner, capillary electrophoresis, MALDI-TOF mass spectrophotometry, high performance liquid chromatography. Those skilled in the art may also use a biological assay, such as the factor Xa inhibition assay.
In order to corroborate the structural analysis, the anti-Xa activities of the fractions having affinity and not having affinity, separated in column 1 (protection: enoxaparin), were determined.

In the case of “ΔUA-(1→4)α-GlcNAc(6S)-(1→4)β-GlcA-(1→4)α-GlcNS(NS,3,6S)-(1→4)β-IdA2S-(1→4)α-GlcNS(NS,6S)”, the anti-Xa activity was 650-700 IU/mg.
